Data published in patent US20250388582A1, “NOVEL BICYCLIC HETEROARYL COMPOUND AND USE THEREOF” (ILDONG PHARMACEUTICAL CO., LTD., priority 2022, published 2025).

The compounds below were run against T1, human GST-PIKFYVE (Homo sapiens, UniProt Q9Y2I7) (assay: ADP-Glo kinase assay, enzyme inhibition activity against human PIKFYVE (Carna biosciences)). Details: inhibitory activity at final compound concentration 10 nM; 1 hour at room temperature.
T1 construct: GST; purchased Carna biosciences 11-118
T1 sequence (Q9Y2I7 whole entry): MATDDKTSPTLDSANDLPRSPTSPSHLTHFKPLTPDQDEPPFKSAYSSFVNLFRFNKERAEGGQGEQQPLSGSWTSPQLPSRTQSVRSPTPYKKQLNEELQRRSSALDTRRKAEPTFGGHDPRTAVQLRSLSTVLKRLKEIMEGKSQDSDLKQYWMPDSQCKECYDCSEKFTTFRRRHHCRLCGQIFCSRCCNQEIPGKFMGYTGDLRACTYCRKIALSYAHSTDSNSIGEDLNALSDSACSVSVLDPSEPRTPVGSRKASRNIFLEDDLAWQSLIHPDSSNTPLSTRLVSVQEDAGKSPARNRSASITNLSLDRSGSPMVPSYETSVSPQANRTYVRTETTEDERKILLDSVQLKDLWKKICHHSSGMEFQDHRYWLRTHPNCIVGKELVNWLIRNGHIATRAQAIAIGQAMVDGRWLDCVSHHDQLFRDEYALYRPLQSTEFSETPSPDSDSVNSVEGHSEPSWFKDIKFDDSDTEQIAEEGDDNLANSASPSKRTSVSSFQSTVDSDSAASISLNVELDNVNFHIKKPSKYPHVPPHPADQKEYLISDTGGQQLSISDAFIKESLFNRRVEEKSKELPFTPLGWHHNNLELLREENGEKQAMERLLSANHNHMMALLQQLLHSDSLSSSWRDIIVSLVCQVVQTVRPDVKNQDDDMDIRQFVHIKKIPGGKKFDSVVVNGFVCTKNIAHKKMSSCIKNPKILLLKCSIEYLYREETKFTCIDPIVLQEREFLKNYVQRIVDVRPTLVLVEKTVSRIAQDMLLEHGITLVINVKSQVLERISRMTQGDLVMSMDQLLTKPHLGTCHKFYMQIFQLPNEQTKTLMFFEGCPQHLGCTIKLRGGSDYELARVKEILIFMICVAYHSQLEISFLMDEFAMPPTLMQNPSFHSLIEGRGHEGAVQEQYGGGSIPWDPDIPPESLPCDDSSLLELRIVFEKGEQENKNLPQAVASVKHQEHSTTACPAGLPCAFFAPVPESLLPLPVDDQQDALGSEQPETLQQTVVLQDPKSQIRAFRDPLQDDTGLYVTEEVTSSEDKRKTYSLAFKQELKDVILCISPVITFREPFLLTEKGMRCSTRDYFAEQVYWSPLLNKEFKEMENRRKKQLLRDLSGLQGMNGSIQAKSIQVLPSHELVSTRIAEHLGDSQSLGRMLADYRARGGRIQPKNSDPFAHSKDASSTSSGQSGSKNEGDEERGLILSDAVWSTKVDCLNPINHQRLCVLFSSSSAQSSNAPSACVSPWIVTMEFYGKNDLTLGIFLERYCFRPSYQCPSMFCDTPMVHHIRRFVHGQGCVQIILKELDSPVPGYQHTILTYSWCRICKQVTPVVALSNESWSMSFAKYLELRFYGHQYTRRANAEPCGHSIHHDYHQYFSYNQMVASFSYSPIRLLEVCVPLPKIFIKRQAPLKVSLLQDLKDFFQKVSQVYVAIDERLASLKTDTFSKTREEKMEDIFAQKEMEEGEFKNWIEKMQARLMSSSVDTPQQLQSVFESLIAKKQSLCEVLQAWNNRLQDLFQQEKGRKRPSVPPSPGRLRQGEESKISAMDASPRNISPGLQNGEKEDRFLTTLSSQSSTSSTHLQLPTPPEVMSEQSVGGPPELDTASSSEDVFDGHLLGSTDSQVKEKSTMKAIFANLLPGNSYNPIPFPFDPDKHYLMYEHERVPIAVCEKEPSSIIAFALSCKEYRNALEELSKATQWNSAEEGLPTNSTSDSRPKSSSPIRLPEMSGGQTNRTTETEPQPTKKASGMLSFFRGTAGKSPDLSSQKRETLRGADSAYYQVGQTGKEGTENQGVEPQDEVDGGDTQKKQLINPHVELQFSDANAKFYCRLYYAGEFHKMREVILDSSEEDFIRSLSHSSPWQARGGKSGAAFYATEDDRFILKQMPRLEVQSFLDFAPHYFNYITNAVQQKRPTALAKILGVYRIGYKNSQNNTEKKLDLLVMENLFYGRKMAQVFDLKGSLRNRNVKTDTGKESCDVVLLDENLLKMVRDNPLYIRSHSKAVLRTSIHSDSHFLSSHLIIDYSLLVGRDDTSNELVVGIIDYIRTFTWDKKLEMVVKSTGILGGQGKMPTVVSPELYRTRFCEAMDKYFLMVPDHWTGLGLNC
Format: biochemical
Experimental: The enzyme inhibition activity values for the compounds according to Examples against human PIKFYVE were calculated using the ADP-Glo™ kinase assay service of Carna biosciences, Inc. The enzyme activity evaluation method provided by Carna biosciences Inc., is shown below.
Enzyme inhibition activity was evaluated by reacting the compounds according to Examples with human GST-PIKFYVE (11-118, Carna biosciences), which was purified using glutathione Sepharose chromatography. The reaction buffer used was composed of 50 mmol/L MOPS, 1 mmol/L DTT, and pH 7.2, and all reactions of the test distilled water were performed in the buffer.
Compounds were prepared as solutions in 100% DMSO as 100× stocks and adjusted to have a final sample concentration of 10 nM.
The substrate-enzyme reaction for PIKFYVE was performed by mixing 5 μL human GST-PIKFYVE, 5 μL compounds according to Examples, 5 μL enzyme substrate, and 5 μL purified ATP and reacting for 1 hour at room temperature. After the substrate-enzyme reaction, 20 μL ADP-Glo™ Reagent was added and reacted at room temperature for 40 minutes, then 40 μL Kinase Detection Reagent was added and reacted at room temperature for 40 minutes.
After completion of the reaction, the degree of enzyme activity inhibition was measured by luminescence. The fluorescence of the enzyme activity in the solvent control group […] was set to 100%, and the fluorescence of the enzyme activity in the solvent control group without compound treatment was set to 0%. The inhibitory activity of each compound according to Examples was calculated based on these values.
In the case of Cc1cccc(/C=N/n2cnc3c(Nc4ccc(Cl)cc4)nc(N4CCOCC4)nc32)c1 [Example 186, (E)-N-(4-chlorophenyl)-9-((3-methylbenzylidene)amino)-2-morpholino-9H-purin-6-amine], the “ADP-Glo kinase assay (%, 10 nM)” value is reported as 52.43%.
For Cc1cccc(/C=N/Nc2nc(N3CCOCC3)nc3c2nc(C)n3CC(=O)c2cccnc2)c1 [Example 158, (E)-2-(8-methyl-6-(2-(3-methylbenzylidene)hydrazinyl)-2-morpholino-9H-purin-9-yl)-1-(pyridin-3-yl)ethan-1-one], the “ADP-Glo kinase assay (%, 10 nM)” value was 63.93%.
In the case of Cc1cccc(/C=N/Nc2nc(N3CCOCC3)nc3c2ncn3-c2cccc(C(F)(F)F)c2)c1 [Example 130, (E)-4-(6-(2-(3-methylbenzylidene)hydrazinyl)-9-(3-(trifluoromethyl)phenyl)-9H-purin-2-yl)morpholine], the “ADP-Glo kinase assay (%, 10 nM)” value is reported as 69.14%.
For Cc1cccc(CNn2cnc3c(Nc4ccncc4)nc(N4CCOCC4)nc32)c1 [Example 203, N^9-(3-methylbenzyl)-2-morpholino-N^6-(pyridin-4-yl)-9H-purin-6,9-diamine], the “ADP-Glo kinase assay (%, 10 nM)” value was 53.14%.
In the case of Cc1cccc(/C=N/Nc2nc(N3CCOCC3)nc3nc(-c4cccnc4)ccc23)c1 [Example 216, (E)-4-(4-(2-(3-methylbenzylidene)hydrazinyl)-7-(pyridin-3-yl)pyrido[2,3-d]pyrimidin-2-yl)morpholine], the “ADP-Glo kinase assay (%, 10 nM)” value is reported as 63.00%.
Cc1cccc(/C=N/n2c(C)nc3c(Nc4ccncc4)nc(N4CCOCC4)nc32)c1 [Example 207, (E)-8-methyl-9-((3-methylbenzylidene)amino)-2-morpholino-N-(pyridin-4-yl)-9H-purin-6-amine] was tested, and the “ADP-Glo kinase assay (%, 10 nM)” value was 75.57%.
In the case of COc1ccccc1Nc1nc(N2CCOCC2)nc2c1ncn2/N=C/c1cccc(C)c1 [Example 187, (E)-N-(2-methoxyphenyl)-9-((3-methylbenzylidene)amino)-2-morpholino-9H-purin-6-amine], the “ADP-Glo kinase assay (%, 10 nM)” value is reported as 52.07%.
COC(=O)N1CC(n2cnc3c(N/N=C/c4cccc(C)c4)nc(N4CCOCC4)nc32)C1 [Example 83, methyl (E)-3-(6-(2-(3-methylbenzylidene)hydrazinyl)-2-morpholino-9H-purin-9-yl)azetidine-1-carboxylate] was tested, and the “ADP-Glo kinase assay (%, 10 nM)” value was 63.61%.
In the case of Cc1cccc(/C=N/Nc2nc(N3CCOCC3)nc3c2nc(C)n3-c2cc(C)n(C)n2)c1 [Example 153, (E)-4-(9-(1,5-dimethyl-1H-pyrazol-3-yl)-8-methyl-6-(2-(3-methylbenzylidene)hydrazinyl)-9H-purin-2-yl)morpholine], the “ADP-Glo kinase assay (%, 10 nM)” value is reported as 63.58%.
With Cc1cccc(/C=N/Nc2nc(N3CCOCC3)nc3c2nc(C)n3-c2cccc(Cl)c2)c1 [Example 163, (E)-4-(9-(3-chlorophenyl)-8-methyl-6-(2-(3-methylbenzylidene)hydrazinyl)-9H-purin-2-yl)morpholine] the “ADP-Glo kinase assay (%, 10 nM)” value was 54.29%.
In the case of Cc1ccccc1/C=N/n1cnc2c(Nc3ccncc3)nc(N3CCOCC3)nc21 [Example 167, (E)-9-((2-methylbenzylidene)amino)-2-morpholino-N-(pyridin-4-yl)-9H-purin-6-amine], the “ADP-Glo kinase assay (%, 10 nM)” value is reported as 68.47%.
With COc1ccc(-n2c(C)nc3c(N/N=C/c4cccc(C)c4)nc(N4CCOCC4)nc32)cc1 [Example 161, (E)-4-(9-(4-methoxyphenyl)-8-methyl-6-(2-(3-methylbenzylidene)hydrazinyl)-9H-purin-2-yl)morpholine] the “ADP-Glo kinase assay (%, 10 nM)” value was 79.72%.
Clc1cccc(/C=N/n2cnc3c(Nc4ccncc4)nc(N4CCOCC4)nc32)c1 [Example 171, (E)-9-((3-chlorobenzylidene)amino)-2-morpholino-N-(pyridin-4-yl)-9H-purin-6-amine] was tested, and the “ADP-Glo kinase assay (%, 10 nM)” value was 86.73%.
